“And” between values parts separate entries of the source, which are not always exact repeats. Equal values may be shown once.
What was measured:
Assay in all cases: Effect on fungi growth (Example III)
Assay type in all cases: cell-based
trychoderma = conditions: additive 10%, without biocontrol formulation; initial diameter 0.5 cm
Source text: (§1) The effect of various additives on fungi growth was examined. The fungi examined included two isolates of Fusarium Spp. (isolate #1 and isolate #2), sclerotium, and trychoderma.
(§2) The larger the colony's dimension (diameter) in the petri dish, the lower is the inhibitory effect of the additive. The initial diameter of the colony before treatment was 0.5 cm.

[1] = test system: Fusarium Spp. (isolate #2); conditions: additive 10%, without biocontrol formulation, initial diameter 0.5 cm
Source text: as §1, §2

[2] = test system: Fusarium Spp. (isolate #1); conditions: additive 10%, without biocontrol formulation, initial diameter 0.5 cm
Source text: as §1, §2

sclerotium = conditions: additive 10%, without biocontrol formulation, initial diameter 0.5 cm
Source text: as §1, §2

Compound	colony size (diameter) (trychoderma)	colony size (diameter) [1]	colony size (diameter) [2]	colony size (diameter) (sclerotium)	colony size (diameter) ([1]; hydrate)	colony size (diameter) ([2]; hydrate)	colony size (diameter) (sclerotium; hydrate)
O=C([O-])O.[K+] [Potassium bicarbonate, potassium becarbonate]	0.5 cm	1.3 cm and 1.2 cm	1.6 cm and 1.5 cm and 2.0 cm and 1.8 cm	0.5 cm			
O=C([O-])O.[Na+] [Sodium bicarbonate, sodium bicarbonate]	0.5 cm	0.5 cm	1.0 cm and 1.1 cm	0.5 cm			
O.O.O.O.O.O.O.O=S(=O)([O-])[O-].[Mg+2] [Magnesium sulphate hepta hydrate, magnesiumsulphate hepta hydrate]	0.5 cm				3.0 cm and 3.1 cm	3.2 cm and 3.1 cm	3.0 cm and 2.7 cm and 2.5 cm and 2.2 cm
